Here are results for 75 molecules from PubChem BioAssay AID1996.

Each structure is given as a SMILES string. Values after ≈ are worked out from the molar mass of the structure shown.

The conditions of this data set: buffer; pH 7.4; 200.0 µM.
For `CCC(C)N(C)C1CCN(C(=S)Nc2ccc(OC)cc2)CC1` (stereo not given), the solubility (kinetic) (commonly the concentration staying in solution when a stock, usually in DMSO, is diluted into the medium) was greater than 50.3 µg/mL. The value for `Cc1ccc(S(=O)(=O)NCc2cccnc2)cc1` was greater than 39.3 µg/mL; that for `CCOc1ccc(C(=O)NCCN2CCOCC2)cc1` was greater than 41.8 µg/mL. The figure for `Cc1ccnc(NS(=O)(=O)c2ccc3ccccc3c2)n1` is 28.1 µg/mL (≈ 93.9 µM); for `Cc1nc(N)nc(COc2ccccc2)n1` it is greater than 32.4 µg/mL.

Molecule `CCC(C)c1ccc(NC(=O)c2ccco2)cc1` (stereo not given) displayed a solubility (kinetic) of 24.6 µg/mL (≈ 101 µM). The value for `O=c1c2ccccc2nc2n1CCO2` was greater than 28.2 µg/mL; that for `Cc1cccc(NC(=O)CCCC(=O)OC(C)C(=O)c2ccccc2)c1` (stereo not given) was 46.1 µg/mL (≈ 130 µM); that for `O=C(NCC1CCCN(C2Cc3ccccc3C2)C1)c1cccs1` (stereo not given) was 40.1 µg/mL (≈ 118 µM). The value for `Cl.O=C(CCN1CCOCC1)NNC(=O)c1ccc(Cl)c([N+](=O)[O-])c1` was greater than 59 µg/mL; that for `COCC(=O)Nc1cc(C)cn(Cc2ccccc2Cl)c1=O` was 41.4 µg/mL (≈ 129 µM); that for `Cc1c(NS(=O)(=O)c2ccc(N)cc2)c(=O)n(-c2ccccc2)n1C` was greater than 53.8 µg/mL. The figure for `CCOC(=O)Cc1csc(NC(=O)CN2C(=O)c3ccccc3C2=O)n1` is 54.3 µg/mL (≈ 145 µM); for `O=C(NN1CCOCC1)c1ccccc1F` it is greater than 33.6 µg/mL; for `O=C(NCCO)C(=O)Nc1cc2c3c(c1)CCN3C(=O)CC2` it is greater than 45.5 µg/mL. Turning to `COc1ccc(NC(=S)NC(=NS(=O)(=O)c2ccc(Cl)cc2)c2ccccc2)cc1`, the solubility (kinetic) was 47.3 µg/mL (≈ 103 µM). The value for `O=C(Nc1cccc(Br)c1)c1cc(=O)c2ccccc2o1` was less than 0.7 µg/mL; that for `Cc1ccc(S(=O)(=O)N2CCN(Cc3ccccc3)CC2)cc1` was 5 µg/mL (≈ 15.1 µM).

Regarding `O=C(NCc1ccccc1Cl)C1CCCO1` (stereo not given), the kinetic solubility amounted to 32.1 µg/mL (≈ 134 µM). The value for `N#Cc1ccc(C(=O)N2CCN(C(=O)C3CCCO3)CC2)cc1` (stereo not given) was greater than 47 µg/mL; that for `C=CCc1cccc2cc(C(=O)NCCOC)c(=O)oc12` was 41.5 µg/mL (≈ 144 µM); that for `O=C(NCC1CCCCC1)c1ccc(Cl)nc1` was greater than 37.9 µg/mL. The figure for `C#CCN1C(=O)S/C(=C\c2cc3c(cc2OC)OCO3)C1=O` is 1.1 µg/mL (≈ 3.47 µM); for `COc1ccc(NC(=O)NCCCCc2ccccc2)c(OC)c1` it is 0.7 µg/mL (≈ 2.13 µM); for `CC1CCN(C(=S)c2ccc(N(C)C)cc2)CC1` it is 5.4 µg/mL (≈ 20.6 µM).

`CCC1(c2ccc(F)cc2)NC(=O)N(CC(=O)NC2CCCC(C)C2C)C1=O` (stereo not given) displayed a solubility (kinetic) of 13.2 µg/mL (≈ 33.9 µM). The figure for `O=C(N/N=C/C1CC2CCC1C2)C1CC1` (stereo not given) is greater than 30.9 µg/mL; for `CC(=O)Nc1ccc(Nc2cc(C)nc3ccccc23)cc1` it is 40.2 µg/mL (≈ 138 µM); for `O=S(=O)(c1ccc(Cl)cc1)N1CCCC1c1cccnc1` (stereo not given) it is greater than 48.4 µg/mL.

`CCCCN(C(=O)C1CCCC1)C1CCS(=O)(=O)C1` (stereo not given) displayed a solubility (kinetic) greater than 43.1 µg/mL. `O=C(Nc1cc(S(=O)(=O)N2CCCC2)ccc1Cl)c1cc(F)c(F)c(F)c1F` displayed a kinetic solubility of 17.7 µg/mL (≈ 40.5 µM).

`CC(C)C(NC(=O)c1ccc(Cl)c([N+](=O)[O-])c1)C(=O)NCc1ccccn1` (stereo not given) returned a kinetic solubility of 40.6 µg/mL (≈ 104 µM).

As for `CC(C)NC(=S)N1CCC(Cc2ccccc2)CC1`, the solubility (kinetic) stood at 24.4 µg/mL (≈ 88.3 µM).

With `COC(=O)c1ccc(=O)n(CC(=O)c2ccc(Cl)cc2)c1`, the solubility (kinetic) is greater than 45.9 µg/mL. As to `CN(C)/C=C(\c1cnc(Cl)s1)S(=O)(=O)c1ccccc1`, the solubility (kinetic) amounted to 43.8 µg/mL (≈ 133 µM). The figure for `CCOC(=O)c1cnc(-c2ccccc2)nc1N1CC(C)OC(C)C1` (stereo not given) is 32.1 µg/mL (≈ 94 µM). The value for `Cc1cc2cc(C#N)c(N3CCOCC3)nc2cc1Cl` was 0.5 µg/mL (≈ 1.74 µM); that for `Cc1cc(C)c2nc(C)cc(Nc3ccc(C(=O)N(C)C)cc3)c2c1` was 5.6 µg/mL (≈ 16.8 µM). The value for `CC(=O)Nc1ccc(Nc2ncnc3ccccc23)cc1` was 6.5 µg/mL (≈ 23.4 µM). As to `COc1ccc2c(c1)nc(SCC(O)c1ccccc1)n2C` (stereo not given), the kinetic solubility turned out to be 41.3 µg/mL (≈ 131 µM). Against the preceding molecule, the solubility kinetic is about 6.4-fold higher. Take `NC(=O)COc1c(-c2ccc(Br)o2)oc2ccccc2c1=O`: the kinetic solubility is 11.1 µg/mL (≈ 30.5 µM). This solubility kinetic lies about 3.7-fold lower than the previous one. The figure for `Cc1cnc(NC(=O)c2ccc(Cl)nc2)s1` is 6.6 µg/mL (≈ 26 µM). The figure for `COc1ccc(NC(=O)CSc2nc3c(c(-c4cccs4)c2C#N)CN(C)CC3)cc1OC` is 19.9 µg/mL (≈ 41.4 µM); for `Cc1ccc2c(CN3CCCCC3)cc(=O)oc2c1C` it is 22.6 µg/mL (≈ 83.3 µM); for `COc1ccc(S(=O)(=O)N2CCc3ccccc32)cc1C(=O)N1CCC(C)CC1` it is 57.8 µg/mL (≈ 139 µM). The value for `O=C(COc1ccccc1)Nc1nc2c(s1)CCCC2` was 3.7 µg/mL (≈ 12.8 µM); that for `CC1(C)CC(C(=O)Nc2ccccc2)C(=O)O1` (stereo not given) was greater than 35 µg/mL; that for `COc1ccc(C(=O)NC23CC4CC(CC(C4)C2)C3)cc1OC` was 2.9 µg/mL (≈ 9.19 µM). In turn, `O=C(N1CCOCC1)N1CCc2ccccc21` yielded a kinetic solubility of 34.8 µg/mL (≈ 150 µM). Against the preceding molecule, the solubility kinetic is about 12-fold higher. The figure for `Cc1cc(NC(=O)COc2ccc([N+](=O)[O-])cc2)no1` is 5.8 µg/mL (≈ 20.9 µM). The value for `Cc1noc(C)c1C(=O)OCC(=O)NC1CCCCC1C` (stereo not given) was greater than 44.2 µg/mL; that for `Cc1ccnc(SCc2ccc([N+](=O)[O-])cc2)n1` was 29.7 µg/mL (≈ 114 µM).

`Cc1ccccc1N1CC2=C(C1=O)C(c1ccccc1)NC(=O)N2C` (stereo not given) registered a kinetic solubility of 0.5 µg/mL (≈ 1.5 µM).

For `Cc1cccc(NC(=O)COC(=O)CCc2ccccc2)c1C`, the kinetic solubility amounted to 5.9 µg/mL (≈ 18.9 µM). The figure for `CC(=O)C1C(c2ccc(C)cc2)c2c(noc2C)CC1(C)O` (stereo not given) is 42.2 µg/mL (≈ 141 µM); for `S=c1ccc2ccccc2[nH]1` it is 22.6 µg/mL (≈ 140 µM).

The molecule `O=S(=O)(c1ccc(F)cc1)N1CCN(CCOc2ccccc2)CC1` displayed a kinetic solubility of 41.1 µg/mL (≈ 113 µM). Against the preceding molecule, the solubility kinetic is about 1.8-fold higher.

As for `O=C(NN=C1CCCCC1)c1ccccc1-n1cccc1`, the solubility (kinetic) is greater than 42.2 µg/mL. The figure for `CCC1CCCCN1C(=S)NC(=O)c1cccc([N+](=O)[O-])c1` (stereo not given) is greater than 48.2 µg/mL. The value for `O=C1CN(S(=O)(=O)c2ccccc2)c2ccccc2N1` was greater than 43.2 µg/mL; that for `CCN1CCN(c2nc(-c3ccc(F)cc3)cc(=O)[nH]2)CC1` was greater than 45.4 µg/mL. The value for `CCOc1cc(S(=O)(=O)Nc2ccncc2)ccc1F` was greater than 44.4 µg/mL; that for `Cc1ccc(CN2CCSCC2)cc1` was 7.4 µg/mL (≈ 35.7 µM); that for `Cc1ccc(NC(=O)c2ccc(=O)[nH]c2)cc1S(=O)(=O)N1CCCCCC1` was greater than 58.4 µg/mL. As to `CCCN(CCC)CC(O)Cn1c2ccccc2c2ccccc21` (stereo not given), the kinetic solubility amounted to 12.5 µg/mL (≈ 38.5 µM). The value for `Cn1c(SCC(=O)N2CCCC2)nc2ccccc21` was greater than 41.3 µg/mL.

In the case of `Nc1c(C(=O)N2CCOCC2)sc2nc3c(cc12)CCC3`, the solubility (kinetic) was greater than 45.5 µg/mL.

The molecule `Cc1cc(C)cc(N(CCC#N)C(=O)CSc2nc3ccccc3c(=O)[nH]2)c1` came in with a kinetic solubility of 28.8 µg/mL (≈ 73.4 µM).

In turn, `COC(=O)Cn1c(=O)oc2ccc(C)cc21` gave a kinetic solubility greater than 33.2 µg/mL. `Cc1nnc(NC(=O)CS(=O)(=O)Cc2ccccc2)s1` showed a kinetic solubility greater than 46.7 µg/mL. The figure for `COCCNC(=O)c1ccc(-c2csc(C)n2)cc1` is greater than 41.5 µg/mL; for `N#Cc1c(-c2ccccc2)nc(-c2cccnc2)[nH]c1=O` it is 40.2 µg/mL (≈ 147 µM); for `CC1=C(C(=O)OC(C)C)C(c2ccc3c(c2)OCO3)NC(=O)N1` (stereo not given) it is 47.3 µg/mL (≈ 149 µM). The value for `COc1ccc(N2CCCC2)c(NC(=O)COc2ccccc2)c1` was 3.8 µg/mL (≈ 11.6 µM); that for `CCOc1ccc2nc(SCC3CC3(Cl)Cl)[nH]c2c1` (stereo not given) was 29.4 µg/mL (≈ 92.7 µM).
